{
  "source": "patent EP4691468A1",
  "about": "“PHARMACEUTICAL COMPOSITION FOR TREATING INFLAMMATORY BOWEL DISEASE” (EA Pharma Co., Ltd., priority 2023, dated 2024)",
  "key": {"[1]": {"experiment": "PK Simulation Analysis 1 by superposition method (Phoenix WinNonlin NPS)", "design": "species or system human", "description": "The plasma concentration profile of Compound (2) on day 10 of repeated administration was predicted using the superposition method implemented in the Nonparametric Superposition (NPS) tool of the analysis software Phoenix WinNonlin, applying the single-dose results (Certara L.P.) (Fig. 4). Table 5: Predicted Plasma Concentration (ng/mL) of Compound (2) on Day 10 of Repeated Administration"}, "[2]": {"conditions": "for 12-Hour Post-Dose Trough Values of Compound (2) after Repeated Administration / Average Plasma Concentrations of Compound (2) on Day 10 of Repeated Administration: Compound (1) 200 mg twice daily C-SEDDS", "method": "A phase 1 clinical trial was conducted to evaluate the safety, tolerability, and pharmacokinetics of Compound (1) when orally administered to healthy adult males.\nThis clinical trial was a single-center, randomized, double-blind, placebo-controlled, single and multiple ascending dose study with the primary objective of evaluating the safety and tolerability of Compound (1) when orally administered to healthy adult males.\nThe subjects in each cohort consisted of 8 people, of which 6 were assigned to Compound (1) and 2 were assigned to placebo, and they were administered the drug.\nDay 8, when repeated administration was started, corresponds to administration day 1 (Day 1), and day 17 corresponds to administration day 10 (Day 10).\nThe plasma concentration of Compound (2) was measured using a validated measurement method. Specifically, plasma was separated from collected blood and processed, and then the plasma concentration was measured by an LC/MS/MS apparatus.\nFor twice-daily administration of C-SEDDS, blood was further collected at 13, 14, 14.5, and 16 hours later to quantify Compound (2)."}, "MAdCAM-1": {"tested_on": "MAdCAM-1", "experiment": "Ex vivo MAdCAM-1 binding inhibition rate (PD) of lymphocytes in collected blood, flow cytometry", "format": "cell-based, human", "description": "The MAdCAM-1 binding rate of lymphocytes in plasma was measured using a validated measurement method using the obtained blood samples, and the MAdCAM-1 binding inhibition rate of lymphocytes in plasma was calculated using Excel. Specifically, 5 µL of an 80 mM MnCl2 solution was added to 90 µL of heparinized blood and incubated at room temperature for 10 minutes. A volume of 5 µL of 200 µg/mL recombinant human MAdCAM-1/Fc (R&D Systems) was added to make a total volume of 100 µL, and the mixture was incubated at room temperature for 30 minutes. Subsequently, 1900 µL of BD Phosflow Lyse/Fix Buffer 5X (BD Biosciences) was added, and hemolysis and fixation were performed at 37°C for 10 minutes. After centrifugation for 5 minutes, the supernatant was removed, and 2000 µL of RPMI-1640 medium supplemented with 10% inactivated fetal bovine serum (hereinafter referred to as medium) was added. After centrifugation for 5 minutes, the supernatant was removed and washed. After washing again with the medium, 50 µL of Brilliant Stain Buffer (BD Biosciences), 1.25 µL of MAdCAM-1 FITC (Hycult Biotech), 5 µL of CD4 PE (BD Biosciences), 2.5 µL of CD45RO APC (UCHL1) (BioLegend), 5 µL of CD3 BV421 (SK7) (BioLegend), and 2.5 µL of CD45 BV510 (HI30) (BioLegend) were added, and the mixture was incubated for 30 minutes. After washing with Stain Buffer (BSA) (BD Biosciences), the percentage of MAdCAM-1-positive cells among CD3-positive CD4-positive cells was measured using flow cytometry.\nThe percentage of MAdCAM-1-positive cells among CD3-positive CD4-positive cells was calculated by subtracting each measured value from the measured value when MAdCAM-1/Fc was not added as a control. […]\nThe MAdCAM-1 binding inhibition rate (PD) of lymphocytes in plasma was evaluated using collected blood, and the correlation with the plasma concentration (PK) of Compound (2) was plotted (Fig. 5)."}, "[3]": {"conditions": "Measured Value, Repeated, Twice daily, 400(200×2)/C-SEDDS, day 10"}, "[4]": {"conditions": "plasma concentration, MAdCAM-1-positive cells among CD3-positive CD4-positive cells, ex vivo blood of healthy adult males"}},
  "note": "“And” between values parts separate entries of the source, which are not always exact repeats. Identical values can stand only once. Like-named read-outs stand apart in the source and are kept apart here.",
  "data": [
    {"smiles": "Cc1cc(=O)n(-c2ccc(C[C@H](NC(=O)c3cc(F)c(NS(=O)(=O)c4ccc(NC(=O)C(C)(C)C)cc4)cc3F)C(=O)O)cn2)c(=O)n1C", "note": "[Compound (2)]", "values": [
      {"measurement": "estimated trough value on the 10th day of repeated administration", "setting": "[1]; 50 mg, 2.5 times the predicted 20 mg value", "result": 2.03, "unit": "ng/mL"},
      {"measurement": "Judgment Trough Value", "setting": "[1]; estimated, repeated administration at 50 mg, 10th day", "result": "B (IC50 (1.9 ng/mL) or higher and less than IC90 (6.9 ng/mL))"},
      {"measurement": "increase of plasma concentration (trough value) 12 hours after the second dose on the 10th day of repeated administration", "setting": "[2]; C-SEDDS 200 mg twice daily, versus single-dose administration", "result": "about eightfold"},
      {"measurement": "12-Hour Post-Dose Trough Values of Compound (2) after Repeated Administration", "setting": "[2]; Day 0.5", "result": 2.025, "unit": "ng/mL"},
      {"measurement": "12-Hour Post-Dose Trough Values of Compound (2) after Repeated Administration", "setting": "[2]; Day 1", "result": 3.653, "unit": "ng/mL"},
      {"measurement": "12-Hour Post-Dose Trough Values of Compound (2) after Repeated Administration", "setting": "[2]; Day 1.5", "result": 4.250, "unit": "ng/mL"},
      {"measurement": "12-Hour Post-Dose Trough Values of Compound (2) after Repeated Administration", "setting": "[2]; Day 2", "result": 6.021, "unit": "ng/mL"},
      {"measurement": "12-Hour Post-Dose Trough Values of Compound (2) after Repeated Administration", "setting": "[2]; Day 2.5", "result": 7.700, "unit": "ng/mL"},
      {"measurement": "12-Hour Post-Dose Trough Values of Compound (2) after Repeated Administration", "setting": "[2]; Day 3", "result": 7.026, "unit": "ng/mL"},
      {"measurement": "12-Hour Post-Dose Trough Values of Compound (2) after Repeated Administration", "setting": "[2]; Day 3.5", "result": 7.381, "unit": "ng/mL"},
      {"measurement": "12-Hour Post-Dose Trough Values of Compound (2) after Repeated Administration", "setting": "[2]; Day 4", "result": 9.303, "unit": "ng/mL"},
      {"measurement": "12-Hour Post-Dose Trough Values of Compound (2) after Repeated Administration", "setting": "[2]; Day 4.5", "result": 9.167, "unit": "ng/mL"},
      {"measurement": "12-Hour Post-Dose Trough Values of Compound (2) after Repeated Administration", "setting": "[2]; Day 5", "result": 9.985, "unit": "ng/mL"},
      {"measurement": "12-Hour Post-Dose Trough Values of Compound (2) after Repeated Administration", "setting": "[2]; Day 5.5", "result": 12.59, "unit": "ng/mL"},
      {"measurement": "12-Hour Post-Dose Trough Values of Compound (2) after Repeated Administration", "setting": "[2]; Day 6", "result": 11.20, "unit": "ng/mL"},
      {"measurement": "12-Hour Post-Dose Trough Values of Compound (2) after Repeated Administration", "setting": "[2]; Day 6.5", "result": 10.81, "unit": "ng/mL"},
      {"measurement": "12-Hour Post-Dose Trough Values of Compound (2) after Repeated Administration", "setting": "[2]; Day 7", "result": 11.82, "unit": "ng/mL"},
      {"measurement": "12-Hour Post-Dose Trough Values of Compound (2) after Repeated Administration", "setting": "[2]; Day 7.5", "result": 10.83, "unit": "ng/mL"},
      {"measurement": "12-Hour Post-Dose Trough Values of Compound (2) after Repeated Administration", "setting": "[2]; Day 8", "result": 14.16, "unit": "ng/mL"},
      {"measurement": "12-Hour Post-Dose Trough Values of Compound (2) after Repeated Administration", "setting": "[2]; Day 8.5", "result": 12.12, "unit": "ng/mL"},
      {"measurement": "12-Hour Post-Dose Trough Values of Compound (2) after Repeated Administration", "setting": "[2]; Day 9", "result": 15.06, "unit": "ng/mL"},
      {"measurement": "12-Hour Post-Dose Trough Values of Compound (2) after Repeated Administration", "setting": "[2]; Day 9.5", "result": 12.20, "unit": "ng/mL"},
      {"measurement": "12-Hour Post-Dose Trough Values of Compound (2) after Repeated Administration", "setting": "[2]; Day 10", "result": 13.69, "unit": "ng/mL"},
      {"measurement": "Average Plasma Concentrations of Compound (2) on Day 10 of Repeated Administration", "setting": "[2]; Day 10, Time 0.5 h", "result": 11.82, "unit": "ng/mL"},
      {"measurement": "Average Plasma Concentrations of Compound (2) on Day 10 of Repeated Administration", "setting": "[2]; Day 10, Time 1 h", "result": 10.63, "unit": "ng/mL"},
      {"measurement": "Average Plasma Concentrations of Compound (2) on Day 10 of Repeated Administration", "setting": "[2]; Day 10, Time 1.5 h", "result": 10.52, "unit": "ng/mL"},
      {"measurement": "Average Plasma Concentrations of Compound (2) on Day 10 of Repeated Administration", "setting": "[2]; Day 10, Time 2 h", "result": 14.42, "unit": "ng/mL"},
      {"measurement": "Average Plasma Concentrations of Compound (2) on Day 10 of Repeated Administration", "setting": "[2]; Day 10, Time 2.5 h", "result": 17.31, "unit": "ng/mL"},
      {"measurement": "Average Plasma Concentrations of Compound (2) on Day 10 of Repeated Administration", "setting": "[2]; Day 10, Time 3 h", "result": 18.02, "unit": "ng/mL"},
      {"measurement": "Average Plasma Concentrations of Compound (2) on Day 10 of Repeated Administration", "setting": "[2]; Day 10, Time 4 h", "result": 20.07, "unit": "ng/mL"},
      {"measurement": "Average Plasma Concentrations of Compound (2) on Day 10 of Repeated Administration", "setting": "[2]; Day 10, Time 5 h", "result": 20.59, "unit": "ng/mL"},
      {"measurement": "Average Plasma Concentrations of Compound (2) on Day 10 of Repeated Administration", "setting": "[2]; Day 10, Time 6 h", "result": 14.19, "unit": "ng/mL"},
      {"measurement": "Average Plasma Concentrations of Compound (2) on Day 10 of Repeated Administration", "setting": "[2]; Day 10, Time 7 h", "result": 12.13, "unit": "ng/mL"},
      {"measurement": "Average Plasma Concentrations of Compound (2) on Day 10 of Repeated Administration", "setting": "[2]; Day 10, Time 8 h", "result": 10.93, "unit": "ng/mL"},
      {"measurement": "Average Plasma Concentrations of Compound (2) on Day 10 of Repeated Administration", "setting": "[2]; Day 10, Time 12 h", "result": 12.20, "unit": "ng/mL"},
      {"measurement": "Average Plasma Concentrations of Compound (2) on Day 10 of Repeated Administration", "setting": "[2]; Day 10, Time 13 h", "result": 15.64, "unit": "ng/mL"},
      {"measurement": "Average Plasma Concentrations of Compound (2) on Day 10 of Repeated Administration", "setting": "[2]; Day 10, Time 14 h", "result": 25.37, "unit": "ng/mL"},
      {"measurement": "Average Plasma Concentrations of Compound (2) on Day 10 of Repeated Administration", "setting": "[2]; Day 10, Time 14.5 h", "result": 25.16, "unit": "ng/mL"},
      {"measurement": "Average Plasma Concentrations of Compound (2) on Day 10 of Repeated Administration", "setting": "[2]; Day 10, Time 15 h", "result": 22.99, "unit": "ng/mL"},
      {"measurement": "Average Plasma Concentrations of Compound (2) on Day 10 of Repeated Administration", "setting": "[2]; Day 10, Time 16 h", "result": 20.48, "unit": "ng/mL"},
      {"measurement": "Average Plasma Concentrations of Compound (2) on Day 10 of Repeated Administration", "setting": "[2]; Day 10, Time 21 h", "result": 13.24, "unit": "ng/mL"},
      {"measurement": "Average Plasma Concentrations of Compound (2) on Day 10 of Repeated Administration", "setting": "[2]; Day 10, Time 24 h", "result": 13.69, "unit": "ng/mL"},
      {"measurement": "12-Hour Post-Dose Trough Values of Compound (2) after Repeated Administration", "setting": "[2]; Initial Value", "result": 0.000, "unit": "ng/mL"},
      {"measurement": "Judgment Trough Value", "setting": "[2]; [3]", "result": "A (IC90 (6.9 ng/mL) or higher)"},
      {"measurement": "Plasma Concentration Trough Value", "setting": "[2]; [3]", "result": "13.69 ng/mL and 13.7 ng/mL"},
      {"measurement": "correlation of MAdCAM-1 binding inhibition rate (PD) with plasma concentration (PK)", "setting": "MAdCAM-1; collected blood, Fig. 5", "result": "correlated"},
      {"measurement": "IC50 (concentration that causes 50% binding inhibition)", "setting": "MAdCAM-1; [4]", "result": 1.9, "unit": "ng/mL"},
      {"measurement": "IC90 (concentration that causes 90% binding inhibition)", "setting": "MAdCAM-1; [4]", "result": 6.9, "unit": "ng/mL"}
    ]}
  ]
}
